Test results: paper PMC13500670, “The U1 snRNP protein U1C and Helix H of U1 snRNA are critical for small molecule splicing modulator function” (Nature Communications, 2026)
One block for each compound: values may come before it.

Columns and labels:
[1] = target: T1, U1 snRNP + FOXM1 5' ss oligo (Homo sapiens, UniProt P09234); assay: FP: U1 snRNP binding to FOXM1 5' ss oligo (Supplementary Fig. 2)
T1 construct: host or cells: either HeLa-S3 U1A-HTP cells (native, as F1) or E. coli proteins (reconstituted, as F2)
Protocol: All of 5′-FAM labeled RNA oligos used in this study were synthesized and purified by IDT (USA). Fluorescence polarization (FP) assays were performed in binding buffer (20 mM HEPES pH 7.5, 1 mM MgCl2, 200 mM KCl, 0.01% TritonX-100, 0.1%PEG3350, 2%DMSO) at room temperature using a Envision HTS Plate Reader system (Revvity). Each reaction system contains 3 nM of FAM-labeled RNA oligo, reconstituted U1 snRNP (or native U1 snRNP, or full-length U1 snRNA, or the 5′end of U1 snRNA) at twofold increasing concentrations, 800 nM (for reconstituted U1 snRNP) or 400 nM (for native U1 snRNP) U1C, different small molecules in DMSO (10 μM unless otherwise stated). The equilibrium dissociation constants (Kd) of binding reaction were calculated using the following single-site binding model formula in GraphPad Prism: y=START+(END−START)x/kD+x where x and y represent the concentration of U1 snRNP (or U1 snRNA) and the polarization value measured respectively, START represents the polarization value of protein-free nucleic acid probe, END represents the maximum polarization value when U1 snRNP (or U1 snRNA) binds to the fluorescently labeled 5′ ss oligo. All FP experiments are carried out in two distinct biological replicates and error bars represent the standard deviation.

[2] = system: cassette exon / GA/GU iExon inclusion, HEK293 cells, scr siRNA; assay: RNA-seq splicing analysis, compound dose response, scrambled (mock) siRNA; assay type: cell-based, human
From the text: (§1) Skipped exons are highly enriched for noncanonical 5′ ss sequences (on either the intronic or exonic side), which account for 90% of skipped exons (Supplementary Fig. 8C). For example, among skipped exons with a canonical exonic 5′ ss sequence, 74% contain noncanonical intron sequence. These observations are consistent with the previous published role for U1C stabilization of the U1 snRNA-pre-mRNA duplex at the 5′ ss[25]–[28]. […] We will refer to these as class I exons for clarity in later discussion.
(§2) We next examined the effect of U1C knockdown on compound-mediated splicing. […] We next used the complete dose response to calculate the effective concentration at which deltaPSIcompound-DMSO is 30 (EC-dPSI30).
(§3) HEK293T cells were grown in DMEM media with 10% FBS. 500,000 cells in 1.75 mL of media were plated into a 6-well plate for approximately 6 h. Either siRNA negative control (ThermoFisher Silencer^TM Negative control #2, AM4613) or U1C siRNA (ThermoFisher Silencer^TM Select Pre-designed siRNA, S13225) were transfected for a final concentration of 25 nM using Invitrogen Lipofectamine RNAiMax (13778-150). In brief, 10 μL 5 μM siRNA was added to 115 μL of OptiMEM, while 5 μL Lipofectamine added to 120 μL OptiMEM for 5 minu before mixing the solutions and incubating for 20 min. 250 μL of Lipofectamine:siRNA solution was gentle added to the 1.75 mL cells. After 24 h post-transfection, cells were treated with 10 μL compound resuspended in DMSO. […] Each compound-treated experimental condition was treated and collected in duplicate, while four DMSO only treated samples per siRNA transfection were collected. RNA was isolated using KingFisher^TM Apex instrument and the MagMAX™ mirVana™ Total RNA Isolation Kit (A27828) by Thermo Fisher according to manufacturer’s protocol. Isolated RNA was submitted to Admera Health for library preparation (polyA selected, stranded) and mRNA-sequencing and >20 M 150 bp pair-end reads were returned.
RNAseq and splicing analysis were described earlier using DEDseq (https:// github.com/liwc01/DEDSeq[18]) with minor modifications. RNA sequencing reads were mapped to human genome (hg19) using STAR (version 2.7.10b); only uniquely mapped reads (with MAPQ > 10) with <5 nt/100 nt mismatches and properly paired reads were used. For splicing analysis, all junction reads (read with a gap in alignment indicating splicing) were used, including the ones mapped to unannotated splice sites. Reads were counted for different exons (for cassette exon [CE]) or exonic regions (for A5′ss or A3′ss). For each splicing event, a percent-spliced-in (PSI) value was calculated using the percent of average read number supporting the inclusion among all reads supporting either the inclusion or the exclusion. A minimum of 10 for the denominator of PSI calculation was required. Otherwise, a “NA” value would be generated. PSI values for biological replicates were averaged, and the PSI difference between the two treatment groups was calculated. For a statistical test, a 2 × 2 read counts table was made for each event, with rows for reads supporting inclusion or exclusion, and columns for the two comparing sample groups. Fisher’s exact test was used for the statistical tests. For biological replicates, each pair of the testing and control sample was analyzed by Fisher’s exact test and the geometric mean of all P-values was reported as a final P-value. PSI change (deltaPSI) of >10% (or < −10%) and P < 0.001 was used to select splicing events being regulated by the treatment. PSI calculation, Fisher’s exact test were performed using R (4.0.5). 5′ ss composition analysis was performed as described in ref. [25]. Potency of splicing modulator was determined by plotting dPSI and identifying the concentration at which the change in PSI reached 30% and reported as EC_dPSI30.

[3] = system: cassette exon / GA/GU iExon inclusion, HEK293 cells, U1C KD; assay: RNA-seq splicing analysis, compound dose response, U1C knockdown; assay type: cell-based, human
From the text: as §1, §2, §3
RNAseq and splicing analysis were described earlier using DEDseq (https:// github.com/liwc01/DEDSeq[18]) with minor modifications. RNA sequencing reads were mapped to human genome (hg19) using STAR (version 2.7.10b); only uniquely mapped reads (with MAPQ > 10) with <5 nt/100 nt mismatches and properly paired reads were used. For splicing analysis, all junction reads (read with a gap in alignment indicating splicing) were used, including the ones mapped to unannotated splice sites. Reads were counted for different exons (for cassette exon [CE]) or exonic regions (for A5′ss or A3′ss). For each splicing event, a percent-spliced-in (PSI) value was calculated using the percent of average read number supporting the inclusion among all reads supporting either the inclusion or the exclusion. A minimum of 10 for the denominator of PSI calculation was required. Otherwise, a “NA” value would be generated. PSI values for biological replicates were averaged, and the PSI difference between the two treatment groups was calculated. For a statistical test, a 2 × 2 read counts table was made for each event, with rows for reads supporting inclusion or exclusion, and columns for the two comparing sample groups. […] For biological replicates, each pair of the testing and control sample was analyzed by Fisher’s exact test and the geometric mean of all P-values was reported as a final P-value. […] Potency of splicing modulator was determined by plotting dPSI and identifying the concentration at which the change in PSI reached 30% and reported as EC_dPSI30.

[4] = target: short RNA duplex of 5' ss (11 nt) and U1 snRNA (11 nt); details: NMR construct without other U1 snRNP components; read-out: Kd between the compound and the short RNA duplex; cited from earlier work

effect on binding between U1 snRNP and FOXM1 5' ss oligo [1]: no effect
Structure (SMILES): Cc1cn2nc(-c3cc(=O)n4cc(N5CCNC6(CC6)C5)ccc4n3)cc(C)c2n1 [Risdiplam, risdiplam]
geomean pEC_dPSI30 for all GA/GU iExons ([2]; Fig. 8C, mock knockdown, -log10 of compound concentration when dPSI achieves 30%): 6.05
saturation PSI of PDXDC1 iExon ([2]; highest dose, mock and U1C KD reach similar saturation): 40
U1CKD Log10 effect ([3]; Fig. 8C picture, pEC-dPSI30 mock versus U1C KD): -0.42
geomean pEC_dPSI30 for all GA/GU iExons ([3]; Fig. 8C, U1C KD): 5.63

Structure (SMILES): Cc1cn2cc(-c3cc(=O)n4cc(N5CCN(C)CC5)ccc4n3)cc(F)c2n1 [SMN-C5]
Kd [4]: 28 µM
